Data as given in US11505547B2, “Compounds” (STEP PHARMA S.A.S., priority 2017, dated 2022).
pIC50: −log10 of the molar value.

target: T1, human CTPS1 (Homo sapiens, UniProt P17812); test: Human CTPS1 enzyme inhibition, ADP-Glo Max assay; type: biochemical; conditions: human full length CTPS1, read-out: CTPS1 (Human CTPS1 Enzyme Inhibition data grouped by potency range, IC50)
T1 construct: purchased Proteros biostructures GmbH
T1 sequence (P17812 1-591): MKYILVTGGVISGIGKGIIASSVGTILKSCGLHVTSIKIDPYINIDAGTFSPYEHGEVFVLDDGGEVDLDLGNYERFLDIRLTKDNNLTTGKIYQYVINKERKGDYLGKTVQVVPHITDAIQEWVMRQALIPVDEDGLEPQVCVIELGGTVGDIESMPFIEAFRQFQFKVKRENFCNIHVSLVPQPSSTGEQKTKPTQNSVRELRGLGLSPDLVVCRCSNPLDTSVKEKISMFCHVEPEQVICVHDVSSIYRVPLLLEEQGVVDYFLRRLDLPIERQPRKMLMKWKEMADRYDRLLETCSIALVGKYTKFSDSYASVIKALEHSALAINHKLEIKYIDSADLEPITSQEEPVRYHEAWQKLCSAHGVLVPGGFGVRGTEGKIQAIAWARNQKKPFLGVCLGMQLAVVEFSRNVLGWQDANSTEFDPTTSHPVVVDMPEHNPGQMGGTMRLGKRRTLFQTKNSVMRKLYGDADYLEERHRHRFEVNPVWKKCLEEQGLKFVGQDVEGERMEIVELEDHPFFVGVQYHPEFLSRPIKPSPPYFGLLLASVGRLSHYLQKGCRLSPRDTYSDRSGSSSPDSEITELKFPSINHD
Experimental: Biological Example 1—Human CTPS1 Enzyme Inhibition
The enzyme inhibitory activities of compounds invented against the target of interest were determined using the ADP-Glo™ Max assay (Promega, UK). Assays for human CTPS1 were performed in 1× assay buffer containing 50 mM Tris, 10 mM MgCl2, 0.01% Tween-20, pH to 8.0 accordingly. Finally, immediately before use, L-cysteine was added to the 1× assay buffer to a final concentration of 2 mM. All reagents are from Sigma-Aldrich unless specified otherwise. Human full length active C-terminal FLAG-Hiss-tag CTPS1 (UniProtKB-P17812, CTPS[1-591]-[…]) was obtained from Proteros biostructures GmbH.
3× human CTPS1 protein was prepared in 1× assay buffer to the final working protein concentration required for the reaction. A 2 uL volume per well of 3× human CTPS1 protein was mixed with 2 uL per well of 3× test compound (compound prepared in 1× assay buffer to an appropriate final 3× compound concentration respective to the concentration response curve designed for the compounds under test) for 10 minutes at 25° C. The enzymatic reaction was then initiated by addition of a 2 uL per well volume of a pre-mixed substrate mix (UltraPure ATP from ADP-Glo™ Max kit (0.31 mM), GTP (0.034 mM), UTP (0.48 mM) and L-glutamine (0.186 mM)) and the mixture was incubated for an appropriate amount of time within the determined linear phase of the reaction at 25° C. under sealed plate conditions with constant agitation at 500 revolutions per minute (rpm). ADP-GIo™ Max reagent was added for 60 minutes (6 uL per well) and subsequently ADP-Glo™ Max development reagent was added for 60 minutes (12 uL per well) prior to signal detection in a microplate reader (EnVision® Multilabel Reader, Perkin Elmer). Following each reagent addition over the course of the assay, assay plates were pulse centrifuged for 30 seconds at 500 rpm.
In all cases, the enzyme converts ATP to ADP and the ADP-Glo™ Max reagent subsequently depletes any remaining endogenous ATP in the reaction system. The ADP-Glo™ Max detection reagent converts the ADP that has been enzymatically produced back into ATP and using ATP as a substrate together with luciferin for the enzyme luciferase, light is generated which produces a detectable luminescence. […] The percentage inhibition produced by each concentration of compound was calculated using the equation shown below: […]
Percentage inhibition was then plotted against compound concentration, and the 50% inhibitory concentration (IC50) was determined from the resultant concentration-response curve.

| pIC50 | Structure (SMILES) |
| --- | --- |
| 6.00 to 7.00 | CCOc1cncc(-c2ccc(C(=O)NC(CC)c3csc(NS(=O)(=O)C4CC4)n3)c(F)c2)n1 (racemic) [Example R62, N-(1-(2-(cyclopropanesulfonamido)thiazol-4-yl)propyl)-4-(6-ethoxypyrazin-2-yl)-2-fluorobenzamide] |
| 6.00 to 7.00 | CCC(NC(=O)c1ccc(-c2cncc(C)c2)cc1)c1csc(NS(=O)(=O)C2CC2)n1 (racemic) [Example R60, N-(1-(2-(cyclopropanesulfonamido)thiazol-4-yl)propyl)-4-(5-methylpyridin-3-yl)benzamide] |
| > 7.00 | CCC(NC(=O)c1ccc(-c2cncc(Cl)n2)cc1)c1csc(NS(=O)(=O)C2CC2)n1 (racemic) [Example R65, 4-(6-chloropyrazin-2-yl)-N-(1-(2-(cyclopropanesulfonamido)thiazol-4-yl)propyl)benzamide] |
| 6.00 to 7.00 | CC(C)(NC(=O)c1ccc(-c2cncc(F)c2)cc1)c1csc(NS(=O)(=O)C2CC2)n1 [Example R36, N-(2-(2-(cyclopropanesulfonamido)thiazol-4-yl)propan-2-yl)-4-(5-fluoropyridin-3-yl)benzamide] |
| 4.68 to 5.00 | CC(C)(NC(=O)c1ccc(-c2ccccn2)nc1)c1csc(NS(=O)(=O)C2CC2)n1 [Example R27, N-(2-(2-(cyclopropanesuIfonamido)thiazol-4-yl)propan-2-yl)-[2,2′-bipyridine]-5-carboxamide] |
| 6.00 to 7.00 | CC(C)(NC(=O)c1ccc(-c2cncc(C(F)(F)F)n2)cc1)c1nc(NS(=O)(=O)C2CC2)sc1Cl [Example R79, N-(2-(5-chloro-2-(cyclopropanesulfonamido)thiazol-4-yl)propan-2-yl)-4-(6-(trifluoromethyl)pyrazin-2-yl)benzamide] |
| > 7.00 | CC(C)(NC(=O)c1ccc(-c2cncc(Cl)n2)cc1)c1csc(NS(=O)(=O)C2CC2)n1 [Example R52, 4-(6-chloropyrazin-2-yl)-N-(2-(2-(cyclopropanesulfonamido)thiazol-4-yl)propan-2-yl)benzamide] |
| > 7.00 | CCC(NC(=O)c1ccc(-c2cncc(C(F)(F)F)n2)cc1)c1csc(NS(=O)(=O)C2CC2)n1 (stereo not drawn) [Example R5, N-(1-(2-(cyclopropanesulfonamido)thiazol-4-yl)propyl)-4-(6-(trifluoromethyl)pyrazin-2-yl)benzamide] |
| 5.00 to 6.00 | CC(=O)c1cncc(-c2ccc(C(=O)NC(C)(C)c3csc(NS(=O)(=O)C4CC4)n3)cc2)c1 [Example R34] |
| 6.00 to 7.00 | CCC(CC)(NC(=O)c1ccc(-c2cccnc2)cc1)c1csc(NS(=O)(=O)C2CC2)n1 [Example R18, N-(3-(2-(cyclopropanesulfonamido)thiazol-4-yl)pentan-3-yl)-4-(pyridin-3-yl)benzamide] |
| 6.00 to 7.00 | CCC(NC(=O)c1ccc(-c2cccnc2)cc1)c1csc(NS(=O)(=O)C2CC2)n1 (racemic) [Example R61, N-(1-(2-(cyclopropanesulfonamido)thiazol-4-yl)propyl)-4-(pyridin-3-yl)benzamide] |
| 5.00 to 6.00 | CCOc1cncc(-c2ccc(C(=O)NC(C)(C)c3nc(NS(=O)(=O)C4CC4)sc3Cl)nc2)n1 [Example R73, N-(2-(5-chloro-2-(cyclopropanesulfonamido)thiazol-4-yl)propan-2-yl)-5-(6-ethoxypyrazin-2-yl)picolinamide] |
| 6.00 to 7.00 | CCC(NC(=O)c1ccc(-c2cnccn2)cc1)c1csc(NS(=O)(=O)C2CC2)n1 (racemic) [Example R67, N-(1-(2-(cyclopropanesulfonamido)thiazol-4-yl)propyl)-4-(pyrazin-2-yl)benzamide] |
| 5.00 to 6.00 | COc1cc(-c2cncc(C#N)n2)ccc1C(=O)NC(C)(C)c1csc(NS(=O)(=O)C2CC2)n1 [Example R50, 4-(6-cyanopyrazin-2-yl)-N-(2-(2-(cyclopropanesulfonamido)thiazol-4-yl)propan-2-yl)-2-methoxybenzamide] |
| 6.00 to 7.00 | Cc1sc(NS(=O)(=O)C2CC2)nc1C(C)(C)NC(=O)c1ccc(-c2cncc(C(F)(F)F)n2)cc1 [Example R78, N-(2-(2-(cyclopropanesuIfonamido)-5-methylthiazol-4-yl)propan-2-yl)-4-(6-(trifluoromethyl)pyrazin-2-yl)benzamide] |
| > 7.00 | CC(C)(NC(=O)c1ccc(-c2cncc(C(F)(F)F)n2)cc1F)c1csc(NS(=O)(=O)C2CC2)n1 [Example R42, N-(2-(2-(cyclopropanesuIfonamido)thiazol-4-yl)propan-2-yl)-2-fluoro-4-(6-(trifluoromethyl)pyrazin-2-yl)benzamide] |
| 5.00 to 6.00 | CCOc1cncc(-c2ccc(C(=O)NC(C)(C)c3nc(NS(=O)(=O)C4CC4)sc3C)nc2)n1 [Example R72, N-(2-(2-(cyclopropanesuIfonamido)-5-methylthiazol-4-yl)propan-2-yl)-5-(6-ethoxypyrazin-2-yl)picolinamide] |
| > 7.00 | CCOc1cncc(-c2ccc(C(=O)NC(C)(C)c3csc(NS(=O)(=O)C4CC4)n3)cc2)n1 [Example R55, N-(2-(2-(cyclopropanesulfonamido)thiazol-4-yl)propan-2-yl)-4-(6-ethoxypyrazin-2-yl)benzamide] |
| 6.00 to 7.00 | CCOc1cncc(-c2ccc(C(=O)NC(C)(C)c3nc(NS(=O)(=O)C4CC4)sc3Cl)c(F)c2)n1 [Example R75, N-(2-(5-chloro-2-(cyclopropanesulfonamido)thiazol-4-yl)propan-2-yl)-4-(6-ethoxypyrazin-2-yl)-2-fluorobenzamide] |
| 6.00 to 7.00 | CC(C)(NC(=O)c1ccc(-c2cncc(Cl)n2)cn1)c1csc(NS(=O)(=O)C2CC2)n1 [Example R25, 5-(6-chloropyrazin-2-yl)-N-(2-(2-(cyclopropanesulfonamido)thiazol-4-yl)propan-2-yl)picolinamide] |
| > 7.00 | CCC(CC)(NC(=O)c1ccc(-c2cncc(C)n2)cc1)c1csc(NS(=O)(=O)C2CC2)n1 [Example R21, N-(3-(2-(cyclopropanesulfonamido)thiazol-4-yl)pentan-3-yl)-4-(6-methylpyrazin-2-yl)benzamide] |
| 6.00 to 7.00 | CCOc1cncc(-c2cnc(C(=O)NC(C)(C)c3csc(NS(=O)(=O)C4CC4)n3)c(F)c2)n1 [Example R23, N-(2-(2-(cyclopropanesuIfonamido)thiazol-4-yl)propan-2-yl)-5-(6-ethoxypyrazin-2-yl)-3-fluoropicolinamide] |
| 6.00 to 7.00 | CC(C)(NC(=O)c1ccc(-c2cnccn2)cc1)c1csc(NS(=O)(=O)C2CC2)n1 [Example R58, N-(2-(2-(cyclopropanesulfonamido)thiazol-4-yl)propan-2-yl)-4-(pyrazin-2-yl)benzamide] |
| 6.00 to 7.00 | CCOc1cncc(-c2ccc(C(=O)NC(CCOC)c3csc(NS(=O)(=O)C4CC4)n3)c(F)c2)n1 (stereo not drawn) [Example R88, N-(1-(2-(cyclopropanesulfonamido)thiazol-4-yl)-3-methoxypropyl)-4-(6-ethoxypyrazin-2-yl)-2-fluorobenzamide] |
| 5.00 to 6.00 | Cc1cc(-c2cncc(C(F)(F)F)n2)ccc1C(=O)NC(C)(C)c1nc(NS(=O)(=O)C2CC2)sc1Cl [Example R77, N-(2-(5-chloro-2-(cyclopropanesulfonamido)thiazol-4-yl)propan-2-yl)-2-methyl-4-(6-(trifluoromethyl)pyrazin-2-yl)benzamide] |
| > 7.00 | CCOc1cncc(-c2ccc(C(=O)NCc3csc(NS(=O)(=O)C4CC4)n3)c(F)c2)n1 [Example R11, N-((2-(cyclopropanesuIfonamido)thiazol-4-yl)methyl)-4-(6-ethoxypyrazin-2-yl)-2-fluorobenzamide] |
| 6.00 to 7.00 | COc1cc(-c2cncc(C(F)(F)F)n2)ccc1C(=O)NC(C)(C)c1csc(NS(=O)(=O)C2CC2)n1 [Example R48, N-(2-(2-(cyclopropanesuIfonamido)thiazol-4-yl)propan-2-yl)-2-methoxy-4-(6-(trifluoromethyl)pyrazin-2-yl)benzamide] |
